From US9943497B2, “Pharmaceutical composition for preventing or treating pulmonary fibrosis” (GACHON UNIVERSITY OF INDUSTRY-ACADEMIC COOPERATION …, priority 2013, dated 2018)

Experiments:
Format in all cases: in vivo
[1] = test system: AGE (advanced glycation end products); test: Western blot analysis, Ponceau staining and ELISA for AGE in lung tissue and serum samples; settings: BLM-treated C57BL/6 mice; oral, every day; SFN 50 μg/kg, Met 25 mg/kg, singly or together; lung tissue and serum at 28 days; vs BLM alone
Method: (§1) In detail, C57BL/6 mice were administered with combination of BLM, SFN and metformin (Met) which is one of BG agents, and control groups and experimental groups were prepared: a control group that was orally administered with sterile physiological saline (SA) and orally administered with distilled water; an experimental group (BLM) that was administered with BLM and orally administered with distilled water; an experimental group (BLM+SFN) that was administered with BLM and orally administered with 50 μg/kg of SFN; an experimental group (BLM+MET) that was administered with BLM and orally administered with 25 mg/hg of Met; and an experimental group (BLM+SFN+MET) that was administered with BLM and orally administered with 50 μg/kg of SFN and 25 mg/kg of Met. At this time, C57BL/6 mice were administered with 2.5 unit of BLM by intratracheal injection under anesthesia at the experiment initiation day and 14 days, and the mice were administered with SFN and Met every day during the experimental period from the next day after the first administration of BLM, and the mice of the control group and experimental groups were raised for 28 days after the experiment initiation day.
(§2) The lung tissues and serum samples were obtained from these animal models. […]

[2] = test system: pulmonary fibrosis induced by administration of Bleomycin (BLM); test: Histological examination (H&E and Masson-trichrome staining, Image J) of lung tissue in pulmonary fibrosis-induced animals; settings: BLM-treated C57BL/6 mice; oral, every day; SFN 50 μg/kg, Met 25 mg/kg, singly or together; lung tissue at 28 days; vs BLM alone
Method: In detail, C57BL/6 mice were administered with combination of BLM, SFN and metformin (Met) which is one of BG agents, and control groups and experimental groups were prepared: a control group that was orally administered with sterile physiological saline (SA) and orally administered with distilled water; an experimental group (BLM) that was administered with BLM and orally administered with distilled water; an experimental group (BLM+SFN) that was administered with BLM and orally administered with 50 μg/kg of SFN; an experimental group (BLM+MET) that was administered with BLM and orally administered with […] of Met; and an experimental group (BLM+SFN+MET) that was administered with BLM and orally administered with 50 μg/kg of SFN and 25 mg/kg of Met. […] The fixed lung tissues were stained by the H&E staining method and the Masson-trichrome staining method, and the stained lung tissues were evaluated by Image J assay to assess and compare lung damage and lung fibrosis (FIGS. 1a to 1c).

[3] = test system: TGF-β1 (transforming growth factor β1); test: Western blot analysis for TGF-β1 in lung tissue and serum samples; settings: BLM-treated C57BL/6 mice; oral, every day; SFN 50 μg/kg, Met 25 mg/kg, singly or together; lung tissue and serum at 28 days; vs BLM alone
Method: as §1
The animal models of the control group and the experimental groups that were prepared in Example 1 and raised for 28 days were sacrificed. The lung tissues and serum samples were obtained from these animal models. […]

fibronectin = test: Western blot analysis for fibronectin in lung tissue and serum samples; settings: BLM-treated C57BL/6 mice; oral, every day; SFN 50 μg/kg, Met 25 mg/kg, singly or together; lung tissue and serum at 28 days; vs BLM alone
Method: as §1, §2

## CN(C)C(=N)N=C(N)N [Met, metformin]
[1]
  AGE level (Western blot, ELISA): slightly reduced AGE level
[2]
  level of fibrous tissue (damaged fibrous regions, H&E and Masson-trichrome staining): slightly reduced
[3]
  TGF-β1 levels (Western blot): reduced TGF-β1 levels
fibronectin
  fibronectin levels (Western blot): reduced fibronectin levels

## C[S+]([O-])CCCCN=C=S (centres unmarked) [SFN, sulforaphane]
[1]
  AGE level (Western blot, ELISA): reduced
[2]
  level of fibrous tissue (damaged fibrous regions, H&E and Masson-trichrome staining): statistically significant reduction
[3]
  TGF-β1 levels (Western blot): reduced TGF-β1 levels
fibronectin
  fibronectin levels (Western blot): reduced fibronectin levels
